Assay results from patent US4845129A, “Diaryl substituted cyclopentane and cyclopentene derivatives” (Sandoz Pharm. Corp., priority 1988, dated 1989).

Experiments:
PAF-induced hypotension = PAF-induced hypotension (Test D); assay type: in vivo, Wistar rats
Method: Male Wistar rats, weighing approximately 300 gm, are anesthetized and their carotid arteries cannulated to enable their diastolic and systolic arterial blood pressure measurements to be recorded. PAF is then administered intravenously at either 100 or 500 ng/kg, and the blood pressure drop (within 10 sec.) and recovery time required to reach the pre-injection blood pressure level are measured.

[1] = test system: PAF-mediated broncho-constriction (PAF-induced Pulmonary Inflation Pressure increase); experiment: PAF-induced Pulmonary Inflation Pressure (PIP) Increase test (Test B); assay type: in vivo, guinea pigs; conditions: Cavia porcellus, PAF 100 ng/kg i.v., maximal PIP
Method: Male guinea pigs, weighing between 300 and 400 gm, are anesthetized, after which time trachea tube, carotid and jugular catheters are inserted. The test animal is then force ventilated employing a small animal Harvard respirator and the resistance to lung inflation (PIP) is measured utilizing a pressure transducer and recorder. The test compound is administered orally at 30 minutes prior to, intravenously (jugular) at 5 minutes prior to, or intraarterially at 1 to 5 minutes prior to the introduction of PAF. The PAF (C18 -Sandoz, Hanover) is dissolved in Tris-Tyrode's bovine serum albumin buffer and administered intravenously (jugular) at 100 ng/kg. Any blood pressure measurements taken are recorded from a transducer attached to the carotid catheter.

[2] = target: T1, Human Platelet PAF Receptor (Homo sapiens, UniProt P25105); experiment: Human Platelet PAF Receptor Assay test (Test A): inhibition of specific binding of [3H]-PAF to platelets; conditions: inhibition of [3H]-PAF specific binding
T1 construct: endogenous in cells; host or cells: washed intact platelets from blood of healthy human donors
Method: Human blood is obtained by venipuncture of healthy, human donors into an anti-coagulant mixture containing 3.15% of trisodium citrate and 20 μg/ml of Prostaglandin I2 (PGI2) in a ratio of blood to anti-coagulant of 9:1. Platelet rich plasma (PRP) is prepared by centrifugation (250×g) of the blood for 20 minutes at room temperature. The PRP is then centrifuged […] for 10 minutes at room temperature and the platelet pellet is washed two times with Tris-Tyrode's (TT) solution having a pH of 7.4 and containing 0.25% bovine serum albumin (BSA), and to which has been added PGI2 at a final concentration of […]. The platelets are resuspended at […] in TT/BSA containing 1.4 mM CaCl2.2H2 O and 0.7 mM MgCl2.6H2 O. All of the tests are conducted in duplicate and each of the test compounds is evaluated at concentrations of 100, 500, 1 and 0.1 μM. For each determination, the following solutions are mixed:
500 μl of the above-described platelets;
10 μl of [^3 H]-PAF (40,000 counts per minute (cpm) to a final concentration of […]); and either
10 μl of the test compound at 50× the desired final concentration,
10 μl of vehicle (total bound), or
10 μl of 1.85×10^-5 M cold PAF (non-specifically bound).
Each mixture is allowed to incubate at room temperature for one hour, after which time the reaction is terminated by the addition of 500 μl of ice cold TT/BSA and centrifugation (900×g) at 4° C. for 10 minutes. The resultant supernatant is aspirated into scintillation vials and the pellet is washed with […]. of ice cold TT/BSA and centrifuged (900×g) at 4° C. for 10 minutes. The supernatants are then aspirated into the same scintillation vials as before and 10 ml. of Scintiverse II (a liquid scintillation cocktail) is added to and mixed therewith. The pellets are resuspended in 500 μl of Scintiverse II and mixed well. An additional 2 ml. of Scintiverse II is then added to the vials and, after mixing, the vials are counted for 1 minute in a liquid scintillation spectrometer. The amount of specific binding is calculated as the difference in cpm between the total bound [^3 H]-PAF and non-specifically bound [^3 H]-PAF. The percent inhibition of specific binding is determined by dividing the cpm specifically bound in the presence of the test compound by the cpm specifically bound in total, multiplying by 100 and then subtracting from 100. An IC50 (50% inhibitory concentration) value is generated by evaluating the test compound over the full concentration range.

[3] = test system: PAF-mediated extravasation; experiment: PAF-induced Extravasation test (Test C), hemoconcentration; assay type: in vivo, guinea pigs; conditions: Cavia porcellus, PAF 100 ng/kg i.v., hematocrit increase
[4] = test system: PAF-induced human platelet aggregation; experiment: Platelet Aggregation Inhibition Assay test (PAIA test): inhibition of PAF-induced human platelet aggregation in vitro; assay type: cell-based; conditions: 0.1 h, platelet rich plasma, AUC over 6 min
Method: All of the compounds of formula I are useful as platelet activating factor inhibitors as indicated by their ability to inhibit platelet activating factor (PAF)-induced human platelet aggregation in vitro according to the Platelet Aggregation Inhibition Assay test (PAIA test) as follows:
Human subjects are kept aspirin free for one week and fasted overnight. Platelet rich plasma (PRP) is prepared by centrifugation (200×g.) of freshly drawn blood, anti-coagulated with 0.38% sodium citrate (final concentration). Platelet count is adjusted to 250,000 per μl using platelet poor plasma (PPP) obtained by a second centrifugation (700×g.) of the blood sample. An aliquot (0.38 ml) of the PRP is dispensed into cuvettes and maintained at room temperature (22° C.) until used (but for not more than two hours). The PRP-containing cuvettes are incubated at 37° C. and stirred at 900 rpm within a Payton Aggregometer which is activated to follow the light deflection pattern prior to the addition of the test compound. […] The aggregation response is quantitated by determining the area under the curve (AUC). The AUC calculated for the inducing agent alone is considered to be one hundred percent. […]

T1 sequence (P25105 whole entry): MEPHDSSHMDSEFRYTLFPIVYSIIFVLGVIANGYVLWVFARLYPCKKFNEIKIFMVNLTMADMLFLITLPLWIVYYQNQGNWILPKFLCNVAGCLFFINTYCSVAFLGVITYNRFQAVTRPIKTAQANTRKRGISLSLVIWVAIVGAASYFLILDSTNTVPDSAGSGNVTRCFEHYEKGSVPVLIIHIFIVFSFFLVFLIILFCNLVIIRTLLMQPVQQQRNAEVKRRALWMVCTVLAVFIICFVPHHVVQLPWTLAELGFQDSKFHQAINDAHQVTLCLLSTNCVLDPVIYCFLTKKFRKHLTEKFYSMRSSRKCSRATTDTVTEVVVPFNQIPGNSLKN

Compound | IC50 [2] [µM] | ED50 ([1]; po) [mg/kg] | ED50 ([3]; po) [mg/kg] | other results
1-0-alkyl-2-acetyl-sn-glyceryl-3-phosphoryl-choline [PAF] | – | – | – | decrease in blood pressure (PAF-induced hypotension; PAF 100 ng/kg i.v.): 30%; decrease in blood pressure (PAF-induced hypotension; PAF 500 ng/kg i.v.): 52%
COc1cc([C@H]2CC[C@H](c3cc(OC)c(OC)c(OC)c3)C2O)cc(OC)c1OC (relative stereo) [Example 3, 1α, 2α, 5β isomer, 2,5-bis(3,4,5-Trimethoxyphenyl)cyclopentanol] | 4.7 | > 20 | > 20 | –
COc1cc([C@H]2CC[C@H](c3cc(OC)c(OC)c(OC)c3)C2OC)cc(OC)c1OC (relative stereo) [Example 4, (1α,2α,5β)-2,5-bis(Trimethoxyphenyl)-1-methoxy cyclopentane] | – | – | – | ED50 (PAF-induced hypotension; Rattus norvegicus, iv, PAF-induced blood pressure decrease): 0.12 mg/kg; ED50 ([1]; iv, i.a.): 0.5 mg/kg; IC50 ([2]; unit printed um): 0.1 µM; ED50 ([3]; i.a.): 0.4 mg/kg; IC50 [4]: 0.88 µM
COc1cc(C2=CCC(c3cc(OC)c(OC)c(OC)c3)C2=O)cc(OC)c1OC (stereo not shown) [Example 1, 2,5-bis(3,4,5-Trimethoxyphenyl)cyclopent-2-enone] | 6 | – | – | ED50 ([1]; iv, i.a.): 1 mg/kg; ED50 ([3]; i.a.): 1 mg/kg
COc1cc(C2CCC(c3cc(OC)c(OC)c(OC)c3)C2=O)cc(OC)c1OC (stereo not shown) [Example 2, 2,5-bis(3,4,5-Trimethoxyphenyl)cyclopentanone] | 0.9 | > 20 | > 20 | –
COc1cc([C@H]2CC[C@@H](c3cc(OC)c(OC)c(OC)c3)[C@H]2O)cc(OC)c1OC [Example 3, 1α, 2α, 5α isomer, 2,5-bis(3,4,5-Trimethoxyphenyl)cyclopentanol] | 2.8 | ~20 | > 20 | –
COc1cc([C@H]2CC[C@@H](c3cc(OC)c(OC)c(OC)c3)[C@H]2OC)cc(OC)c1OC [Example 5, (1α,2α,5α)-2,5-bis(Trimethoxyphenyl)-1-methoxy cyclopentane] | – | – | – | IC50 [4]: 22 µM

Second part, led by results:

IC50 [2] [µM] | Compound | ED50 ([1]; po) [mg/kg] | ED50 ([3]; po) [mg/kg] | other results
2.7 | COc1cc([C@H]2CC[C@H](c3cc(OC)c(OC)c(OC)c3)C2N)cc(OC)c1OC (relative stereo) [Example 10, 1α, 2α, 5β isomer, 1-Amino-2,5-bis(3,4,5-trimethoxyphenyl)cyclopentane] | – | – | –
0.45 | COc1cc(C2CCC(c3cc(OC)c(OC)c(OC)c3)C2=NO)cc(OC)c1OC (stereo not shown) [Example 9, 2,5-bis(3,4,5-Trimethoxyphenyl)cyclopentanone, oxime] | 0.87 | 0.75 | –
22 | COc1cc([C@H]2CC[C@@H](c3cc(OC)c(OC)c(OC)c3)[C@H]2N)cc(OC)c1OC [Example 10, 1α, 2α, 5α isomer, 1-Amino-2,5-bis(3,4,5-trimethoxyphenyl)cyclopentane] | – | – | –
